This data set is described as follows: solvent given as SMILES.

With `CCCCCCCCCCCCOc1ccc(C#Cc2ccc(C#Cc3ccc(OCCCCCCCCCCCC)c(OCCCCCCCCCCCC)c3)c3nc4c5ccccc5c5ccccc5c4nc23)cc1OCCCCCCCCCCCC`, the absorption maximum turned out to be 461 nm (in C1CCOC1), 461 nm (in Cc1ccccc1) and 461 nm (in ClCCl).

Consider `c1ccc(C2CCN3COc4c5ccccc5c5c6c7c(c2c3c46)C(c2ccccc2)CCN7CO5)cc1` (stereo unspecified), for which the absorption maximum is, setting by setting: (in C1CCCCC1) 403 nm; (in C1CCOC1) 405 nm; (in C1COCCO1) 405 nm; (in CC#N) 405 nm; (in CC(C)=O) 406 nm; (in CCOC(C)=O) 404 nm. The absorption maximum by setting is: (in CCOCC) 404 nm; (in CN(C)C=O) 407 nm; (in CO) 402 nm; (in CS(C)=O) 408 nm; (in Cc1ccccc1) 406 nm; (in ClC(Cl)Cl) 404 nm. The compound further registered an absorption maximum (in ClCCl) of 405 nm.

`C(#Cc1cccs1)C(C#Cc1cccs1)=Cc1ccc(C=C(C#Cc2cccs2)C#Cc2cccs2)cc1` showed an absorption maximum (in ClC(Cl)Cl) of 438 nm.

As to `COc1ccc(-c2nc(C(C)=O)c(C)o2)cc1`, the absorption maximum reads like this: (in CC#N) 278 nm; (in CCCCCC) 278 nm; (in CCO) 277 nm; (in CCOC(C)=O) 279 nm; (in CCOCC) 276 nm; (in ClCCl) 277 nm.

In the case of `Clc1nc(Cl)nc(Nc2ccc3ccc4cccc5ccc2c3c45)n1`, the absorption maximum runs as follows: (in CC#N) 341 nm; (in CCCCOCCCC) 341 nm; (in CO) 340 nm.

`Cc1ccc([B-]2(c3ccc(C)cc3)n3nc(C(F)(F)F)cc3-c3c4ccccc4cc[n+]32)cc1`: the absorption maximum by setting is: (in C1CCCCC1) 377 nm; (in Cc1ccccc1) 377 nm; (in ClCCl) 373 nm.

For the compound `c1cnc(-c2c3ccccc3c(-c3ncccn3)c3ccccc23)nc1`, the absorption maximum is, setting by setting: (in CCO) 389 nm; (in ClCCl) 389 nm.

Regarding `CC1=C(c2cccs2)C(C)=[N+]2C1=C(c1ccc(O)cc1)c1c(C)c(-c3cccs3)c(C)n1[B-]2(F)F`, the absorption maximum by setting is: (in CO) 521 nm; (in Cc1ccccc1) 530 nm; (in ClCCl) 528 nm.

Consider `COc1ccc(-c2ccc(C(=O)NC(C)(C)C)c3c2ccc2c4ccccc4c4ccccc4c23)cc1`, for which the absorption maximum (in ClCCl) came to 339 nm.

Consider `CN(C)c1ccc(/C=C2\CCCC2=O)cc1`, for which the absorption maximum worked out at 380 nm (in CC#N); 379 nm (in CC(C)=O); 390 nm (in CC(C)O); 357 nm (in CCCCCC); 392 nm (in CCCCO); 394 nm (in CCCO). The absorption maximum runs as follows: (in CCO) 390 nm; (in CCOC(C)=O) 370 nm; (in CCOCC) 365 nm; (in CN(C)C=O) 383 nm; (in CO) 391 nm; (in CS(C)=O) 383 nm. The absorption maximum was 373 nm (in Cc1ccccc1); 370 nm (in ClC(Cl)(Cl)Cl); 383 nm (in ClC(Cl)Cl); 383 nm (in ClCCl); 387 nm (in S=C=S); 380 nm (in c1ccccc1). The absorption maximum (in c1ccncc1) is 384 nm.

For the compound `COCCOCCOCCOc1ccc(OCCOCCOCCOC)c(C=O)c1`, the absorption maximum by setting is: (in CC(C)(C)O) 349 nm; (in CC(C)CO) 349 nm; (in CC(C)O) 349 nm; (in CCCCO) 348 nm; (in CCCO) 348 nm; (in CCO) 348 nm. The absorption maximum reads like this: (in CN(C)C=O) 349 nm; (in CNC=O) 349 nm; (in CO) 348 nm; (in NC=O) 352 nm; (in O) 350 nm.

As to `N#CC(C#N)=Cc1ccc(-c2cccc(-c3nc4ccccc4s3)c2O)o1`, the absorption maximum stood at 421 nm (in CCO), 428 nm (in ClCCl) and 443 nm (in O).

On to `Cc1cc(-c2nc(-c3ccccc3)nc(-c3ccccc3)n2)ccc1N1c2ccccc2[Si](c2ccccc2)(c2ccccc2)c2ccccc21`, for which the absorption maximum (in Cc1ccccc1) is listed as 379.03 nm.

As to `Cc1ccc(N(c2ccc(C)cc2)c2ccc(-c3c4ccccc4c(-c4ccc(N(c5ccc(C)cc5)c5ccc(C)cc5)cc4)c4nsnc34)cc2)cc1`, the absorption maximum by setting is: (in Cc1ccccc1) 538 nm; (in ClCCl) 536 nm.

`CN(C)c1ccc(/C=C/c2cc[n+](CCCOCC(COCCC[n+]3ccc(/C=C/c4ccc(N(C)C)cc4)cc3)(COCCC[n+]3ccc(/C=C/c4ccc(N(C)C)cc4)cc3)COCCC[n+]3ccc(/C=C/c4ccc(N(C)C)cc4)cc3)cc2)cc1` returned an absorption maximum (in C1COCCO1) of 460 nm; an absorption maximum (in CC(C)O) of 479 nm; an absorption maximum (in CCCCCCCCO) of 485 nm; an absorption maximum (in CCCCO) of 480 nm; an absorption maximum (in CCCO) of 482 nm; an absorption maximum (in CCO) of 484 nm. Moreover, the absorption maximum by setting is: (in CO) 486 nm; (in CS(C)=O) 479 nm; (in ClC(Cl)Cl) 489 nm; (in ClCCl) 489 nm.

On to `Nc1cc[nH]c(=S)n1`, for which the absorption maximum runs as follows: (in CC#N) 283 nm; (in CCO) 280 nm; (in CCOC(C)=O) 286 nm; (in CO) 278 nm; (in CS(C)=O) 285 nm; (in O) 269 nm.

For the setting “in ClC(Cl)Cl”, `CCC[Si](CCC)(CCC)c1cc2ccc3cccc4ccc(c1C(=O)NC(C)(C)C)c2c34` returned an absorption maximum of 382 nm.

`CCOC(=O)c1c(-c2cc3cc4c(cc3oc2=O)OC(C)(C)CC4)nn(-c2cccc(C)c2)c1C(=O)OCC` came in with an absorption maximum (in ClCCl) of 347 nm.

In the case of `O=C1C=Cc2cc3ccccc3c(=O)n21`, the absorption maximum came to 351 nm (in CC#N), 349 nm (in CO), 357 nm (in CS(C)=O) and 353 nm (in ClC(Cl)Cl).

As to `CC1=CC(C)=[N+]2C1=C(c1ccc(-c3ccc(OS(=O)(=O)c4ccc([N+](=O)[O-])cc4[N+](=O)[O-])cc3)s1)c1c(C)cc(C)n1[B-]2(F)F`, the absorption maximum by setting is: (in CO) 512 nm; (in Cc1ccccc1) 518 nm; (in ClCCl) 515 nm.

For the compound `Cc1cc(C#Cc2ccccc2)c2ccc3c(C#Cc4ccccc4)cc(C#Cc4ccccc4)c4ccc1c2c43`, the absorption maximum runs as follows: (in CS(C)=O) 451 nm; (in ClC(Cl)(Cl)Cl) 445 nm.

As for `[O-][n+]1c(/C=C/c2cccs2)nc(N2CCOCC2)c2c1CCCC2`, the absorption maximum (in ClCCl) was 400 nm.

As for `CCN(CC)c1ccc2cc3c(cc2c1)C1(c2ccccc2Oc2ccccc21)c1cc2cc(N(CC)CC)ccc2cc1C3=O`, the absorption maximum (in CC#N) is listed as 452 nm.

For `CCCCOc1ccc2cc(-c3ccc(C)cc3)c(=O)oc2c1`, the absorption maximum amounted to 343 nm (in C1CCOC1), 338 nm (in CCCCCC), 344 nm (in CCO) and 346 nm (in CS(C)=O).

`COc1ccc(C#Cc2c3cc4ccccc4cc3c(C#Cc3ccc(OC)cc3)c3cc4ccccc4cc23)cc1`: the absorption maximum (in ClCCl) is given as 666 nm.

For the compound `Clc1ccccc1N1c2c(sc3ccccc23)Sc2sc3ccccc3c21`, the absorption maximum (in ClCCl) was 400 nm.

Turning to `O=c1cc(COc2ccc(I)cc2)c2c(ccc3ccccc32)o1`, the absorption maximum is, setting by setting: (in C1CCOC1) 349 nm; (in C1COCCO1) 348 nm; (in CC#N) 348 nm; (in CC(C)=O) 349 nm; (in CCCCO) 350 nm; (in CCCO) 350 nm. Moreover, the absorption maximum reads like this: (in CCO) 350 nm; (in CCOC(C)=O) 348 nm; (in CN(C)C=O) 350 nm; (in CO) 348 nm; (in Cc1ccccc1) 350 nm; (in ClCCl) 349 nm.

`Cc1ccc(C2=[N+]3C(=Cc4ccc(C)n4[B-]3(F)F)c3ccccc32)[nH]1`: the absorption maximum is on record as 599 nm (in C1CCOC1); 592 nm (in CC#N); 602 nm (in CCCCCC); 595 nm (in CO); 606 nm (in Cc1ccccc1); 600 nm (in ClCCl).

For `Cc1ccc(-c2cc3ccccc3oc2=O)cc1`, the absorption maximum (in C1CCOC1) is given as 328 nm, the absorption maximum (in CCCCCC) came to 328 nm, the absorption maximum (in CCO) is 328 nm and the absorption maximum (in CS(C)=O) is recorded as 330 nm.

In turn, `Cc1ccc(C#Cc2c3cc4ccccc4cc3c(C#C[Si](C(C)C)(C(C)C)C(C)C)c3cc4ccccc4cc23)cc1` displayed an absorption maximum (in ClCCl) of 654 nm.

Regarding `COc1ccccc1C1=[N+]2C(=Nc3c(-c4ccccc4)cc(-c4ccccc4OC)n3[B-]2(F)F)C(c2ccccc2)=C1`, the absorption maximum (in Cc1ccccc1) is reported as 640 nm.

With `CCC(C)[Si](C#Cc1c2nc3c4ccccc4c(=O)c4ccccc4c3nc2c(C#C[Si](C(C)CC)(C(C)CC)C(C)CC)c2nc3c4ccccc4c(=O)c4ccccc4c3nc12)(C(C)CC)C(C)CC` (stereo unspecified), the absorption maximum (in ClCCl) is reported as 544 nm.

`CCCCN1/C(=C/C=C/C2=[N+](C)c3ccccc3C2(C)C)Oc2ccccc21` returned an absorption maximum (in CS(C)=O) of 516 nm.

With `O=S(=O)(c1cccc(N2c3ccccc3Oc3ccccc32)c1)c1cccc(N2c3ccccc3Oc3ccccc32)c1`, the absorption maximum by setting is: (in C1CCOC1) 317 nm; (in Cc1ccccc1) 308 nm; (in ClC(Cl)Cl) 315 nm.

Turning to `CCOC(=O)c1cc2ccc3ccccc3c2c(C#N)c1N`, under “in Cc1ccccc1”, the absorption maximum was 435 nm.

The values are drawn from the Deep4Chem optical property database.
